From patent US10745389B2, “HDAC6 selective inhibitors, preparation method therefor, and application thereof” (CSTONE PHARMACEUTICALS (SUZHOU) CO., LTD., priority 2017, dated 2020)

Tested on: human myeloma MM.1S cells subcutaneous xenograft tumor
Test: In vivo pharmacodynamic study with Ixazomib, MM.1S subcutaneous xenograft in CB-17 SCID model
Parameters: species or system CB-17 SCID mouse
Conditions: Ixazomib 4 mg/kg administered alone, 21st day
Experimental: The purpose of this experiment was to investigate the in vivo therapeutic effect of the compounds of the present invention in combination with proteasome inhibitor Ixazomib on human myeloma MM.1S cell subcutaneous xenografts in the CB-17 SCID model.
Human myeloma MM. S cells were cultured in vitro in a single layer, culture environment was RPMI-1640 medium (supplier: Gibco; Cat. No. 22400-089) supplemented with 10% fetal bovine serum, 37° C. 5% CO2 incubator. Then passage was done by routinely digested with trypsin-EDTA twice a week. When the cell saturation rate reached 80%-90%, the cells were collected, counted, and inoculated.
0.2 mL of 5×10^6 MM.1S cells were subcutaneously inoculated into the right back of each mouse (Beijing Weitong Lihua Biotechnology Co., Ltd., female, 6-8 weeks old) (PBS: Matrigel=1:1)). Administration by groups was initiated when the average tumor volume reached 100-150 mm^3.
Animals were monitored daily for health and mortality, routine tests includes observations of tumor growth and drug treatment effects on animal performance, such as behavioral activities, food intake (visual inspection only), weight change (measured every other day), appearance signs or other abnormal conditions. The number of animal deaths and side effects in the group were recorded based on the number of animals in each group.
The experimental index is to investigate whether tumor growth is inhibited, delayed or cured. Tumor diameters were measured with vernier calipers three times a week. The tumor volume is calculated by: V=0.5a×b^2, where a and b represent the long and short diameters of the tumor, respectively.
The antitumor effect of the compound was evaluated by TGI (%) or relative tumor growth rate T/C (%). TGI (%), reflecting the tumor growth inhibition rate. […]

Question: For `CC(C)C[C@H](NC(=O)CNC(=O)c1cc(Cl)ccc1Cl)B(O)O` [Ixazomib], which tumor volume is on record?
Answer: The tumor volume was 916 mm^3.

Question: What about the T/C (vs solvent control) of the same molecule?
Answer: Its T/C is 34.97%.

Question: And the TGI (vs solvent control)?
Answer: Its TGI is 68.65%.
